Assay results taken from patent US10202361B2, “Pyridazinones as herbicides” (E I DU PONT DE NEMOURS AND COMPANY, priority 2014, dated 2019).
Where two headings read alike, the source gives them in different places.

Key:
Assay in all cases: Test C pre-/postemergence greenhouse herbicide test
Assay type in all cases: in vivo
[1] = test system: barnyardgrass (Echinochloa crus-galli); conditions: Barnyardgrass
How it was run: (§1)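 Seeds in loam–sand blend sprayed preemergence, and 1- to 4-leaf plants (2–18 cm) sprayed postemergence, with compounds in non-phytotoxic solvent plus surfactant. Visual rating versus controls after 13–15 d in greenhouse, 0 (no effect) to 100 (complete control).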

[2] = test system: blackgrass (Alopecurus myosuroides); conditions: Alopecurus myosuroides, Blackgrass, read-out: Plant response rating; for pest or weed control at 31 g/ha: 31 g ai/ha; for pest or weed control at 62 g/ha: 62 g ai/ha; for pest or weed control at 125 g/ha: 125 g ai/ha; for pest or weed control at 250 g/ha: 250 g ai/ha
How it was run: as §1

corn (Zea mays) = conditions: Zea mays, Corn, read-out: Plant response rating; for plant injury at 31 g/ha: 31 g ai/ha; for plant injury at 62 g/ha: 62 g ai/ha; for plant injury at 125 g/ha: 125 g ai/ha; for plant injury at 250 g/ha: 250 g ai/ha
How it was run: as §1

[3] = test system: crabgrass, Large (large crabgrass, Digitaria sanguinalis); conditions: Digitaria sanguinalis, Crabgrass, Large, read-out: Plant response rating; for pest or weed control at 31 g/ha: 31 g ai/ha; for pest or weed control at 62 g/ha: 62 g ai/ha; for pest or weed control at 125 g/ha: 125 g ai/ha; for pest or weed control at 250 g/ha: 250 g ai/ha
How it was run: as §1

[4] = test system: johnsongrass (Sorghum halepense); conditions: Sorghum halepense, Johnsongrass, read-out: Plant response rating; for pest or weed control at 31 g/ha: 31 g ai/ha; for pest or weed control at 62 g/ha: 62 g ai/ha; for pest or weed control at 125 g/ha: 125 g ai/ha; for pest or weed control at 250 g/ha: 250 g ai/ha
How it was run: as §1

[5] = test system: lambsquarters (Chenopodium album)
How it was run: as §1

[6] = test system: nutsedge, yellow (yellow nutsedge, Cyperus esculentus); conditions: Cyperus, Nutsedge, Yellow, read-out: Plant response rating; for pest or weed control at 31 g/ha: 31 g ai/ha; for pest or weed control at 62 g/ha: 62 g ai/ha; for pest or weed control at 125 g/ha: 125 g ai/ha; for pest or weed control at 250 g/ha: 250 g ai/ha
How it was run: as §1

[7] = test system: oat, wild (wild oat, Avena fatua); conditions: Postemergence
How it was run: as §1

[8] = test system: pigweed (Amaranthus retroflexus); conditions: Amaranthus retroflexus, Pigweed, read-out: Plant response rating; for pest or weed control at 31 g/ha: 31 g ai/ha; for pest or weed control at 62 g/ha: 62 g ai/ha; for pest or weed control at 125 g/ha: 125 g ai/ha; for pest or weed control at 250 g/ha: 250 g ai/ha
How it was run: as §1

[9] = test system: ragweed (common ragweed, Ambrosia elatior); conditions: Ambrosia artemisiifolia, Ragweed, read-out: Plant response rating; for pest or weed control at 31 g/ha: 31 g ai/ha; for pest or weed control at 62 g/ha: 62 g ai/ha; for pest or weed control at 125 g/ha: 125 g ai/ha; for pest or weed control at 250 g/ha: 250 g ai/ha
How it was run: as §1

[10] = test system: waterhemp (common waterhemp, Amaranthus rudis); conditions: Waterhemp
How it was run: as §1

[11] = test system: wheat (winter wheat, Triticum aestivum); conditions: Triticum aestivum, Wheat, read-out: Plant response rating; for plant injury at 62 g/ha: 62 g ai/ha; for plant injury at 125 g/ha: 125 g ai/ha; for plant injury at 250 g/ha: 250 g ai/ha
How it was run: as §1

COc1cc(=O)n(-c2ccc(C(F)(F)F)cc2)nc1Cc1ccnc(C(F)(F)F)c1 [Compound 16, 5-methoxy-2-[4-(trifluoromethyl)phenyl]-6-[[2-(trifluoromethyl)-4-pyridinyl]methyl]-3(2H)-pyridazinone]
Plant response rating ([1]; Postemergence, 31 g ai/ha): 10
Plant response rating ([1]; Postemergence, 62 g ai/ha): 10
Plant response rating ([1]; Postemergence, 125 g ai/ha): 25
Plant response rating ([1]; Postemergence, 250 g ai/ha): 35
Plant response rating ([1]; Preemergence, 31 g ai/ha): 75
Plant response rating ([1]; Preemergence, 62 g ai/ha): 80
Plant response rating ([1]; Preemergence, 125 g ai/ha): 95
Plant response rating ([1]; Preemergence, 250 g ai/ha): 100
pest or weed control at 31 g/ha ([2]; post-emergence, Postemergence): 5%
pest or weed control at 62 g/ha ([2]; post-emergence, Postemergence): 5%
pest or weed control at 125 g/ha ([2]; post-emergence, Postemergence): 5%
pest or weed control at 250 g/ha ([2]; post-emergence, Postemergence): 10%
pest or weed control at 31 g/ha ([2]; pre-emergence, Preemergence): 40%
pest or weed control at 62 g/ha ([2]; pre-emergence, Preemergence): 50%
pest or weed control at 125 g/ha ([2]; pre-emergence, Preemergence): 60%
pest or weed control at 250 g/ha ([2]; pre-emergence, Preemergence): 90%
plant injury at 31 g/ha (corn (Zea mays); post-emergence, Postemergence): 20%
plant injury at 62 g/ha (corn (Zea mays); post-emergence, Postemergence): 40%
plant injury at 125 g/ha (corn (Zea mays); post-emergence, Postemergence): 40%
plant injury at 250 g/ha (corn (Zea mays); post-emergence, Postemergence): 55%
plant injury at 31 g/ha (corn (Zea mays); pre-emergence, Preemergence): 45%
plant injury at 62 g/ha (corn (Zea mays); pre-emergence, Preemergence): 60%
plant injury at 125 g/ha (corn (Zea mays); pre-emergence, Preemergence): 75%
plant injury at 250 g/ha (corn (Zea mays); pre-emergence, Preemergence): 75%
pest or weed control at 31 g/ha ([3]; post-emergence, Postemergence): 10%
pest or weed control at 62 g/ha ([3]; post-emergence, Postemergence): 25%
pest or weed control at 125 g/ha ([3]; post-emergence, Postemergence): 30%
pest or weed control at 250 g/ha ([3]; post-emergence, Postemergence): 35%
pest or weed control at 31 g/ha ([3]; pre-emergence, Preemergence): 98%
pest or weed control at 62 g/ha ([3]; pre-emergence, Preemergence): 98%
pest or weed control at 125 g/ha ([3]; pre-emergence, Preemergence): 100%
pest or weed control at 250 g/ha ([3]; pre-emergence, Preemergence): 100%
pest or weed control at 31 g/ha ([4]; post-emergence, Postemergence): 10%
pest or weed control at 62 g/ha ([4]; post-emergence, Postemergence): 10%
pest or weed control at 125 g/ha ([4]; post-emergence, Postemergence): 20%
pest or weed control at 250 g/ha ([4]; post-emergence, Postemergence): 35%
pest or weed control at 31 g/ha ([4]; pre-emergence, Preemergence): 60%
pest or weed control at 62 g/ha ([4]; pre-emergence, Preemergence): 75%
pest or weed control at 125 g/ha ([4]; pre-emergence, Preemergence): 85%
pest or weed control at 250 g/ha ([4]; pre-emergence, Preemergence): 98%
Plant response rating ([5]; Postemergence, 31 g ai/ha): 70
Plant response rating ([5]; Postemergence, 62 g ai/ha): 95
Plant response rating ([5]; Postemergence, 125 g ai/ha): 95
Plant response rating ([5]; Postemergence, 250 g ai/ha): 95
Plant response rating ([5]; Preemergence, 31 g ai/ha): 100
Plant response rating ([5]; Preemergence, 62 g ai/ha): 100
Plant response rating ([5]; Preemergence, 125 g ai/ha): 100
Plant response rating ([5]; Preemergence, 250 g ai/ha): 100
pest or weed control at 31 g/ha ([6]; post-emergence, Postemergence): 5%
pest or weed control at 62 g/ha ([6]; post-emergence, Postemergence): 5%
pest or weed control at 125 g/ha ([6]; post-emergence, Postemergence): 5%
pest or weed control at 250 g/ha ([6]; post-emergence, Postemergence): 20%
pest or weed control at 31 g/ha ([6]; pre-emergence, Preemergence): 5%
pest or weed control at 62 g/ha ([6]; pre-emergence, Preemergence): 10%
pest or weed control at 125 g/ha ([6]; pre-emergence, Preemergence): 30%
pest or weed control at 250 g/ha ([6]; pre-emergence, Preemergence): 55%
Plant response rating ([7]; 31 g ai/ha): 15
Plant response rating ([7]; 62 g ai/ha): 30
Plant response rating ([7]; 125 g ai/ha): 40
Plant response rating ([7]; 250 g ai/ha): 60
pest or weed control at 31 g/ha ([8]; post-emergence, Postemergence): 55%
pest or weed control at 62 g/ha ([8]; post-emergence, Postemergence): 90%
pest or weed control at 125 g/ha ([8]; post-emergence, Postemergence): 95%
pest or weed control at 250 g/ha ([8]; post-emergence, Postemergence): 95%
pest or weed control at 31 g/ha ([8]; pre-emergence, Preemergence): 100%
pest or weed control at 62 g/ha ([8]; pre-emergence, Preemergence): 100%
pest or weed control at 125 g/ha ([8]; pre-emergence, Preemergence): 100%
pest or weed control at 250 g/ha ([8]; pre-emergence, Preemergence): 100%
pest or weed control at 31 g/ha ([9]; post-emergence, Postemergence): 15%
pest or weed control at 62 g/ha ([9]; post-emergence, Postemergence): 25%
pest or weed control at 125 g/ha ([9]; post-emergence, Postemergence): 60%
pest or weed control at 250 g/ha ([9]; post-emergence, Postemergence): 60%
pest or weed control at 31 g/ha ([9]; pre-emergence, Preemergence): 20%
pest or weed control at 62 g/ha ([9]; pre-emergence, Preemergence): 65%
pest or weed control at 125 g/ha ([9]; pre-emergence, Preemergence): 65%
pest or weed control at 250 g/ha ([9]; pre-emergence, Preemergence): 100%
Plant response rating ([10]; Postemergence, 31 g ai/ha): 80
Plant response rating ([10]; Postemergence, 62 g ai/ha): 90
Plant response rating ([10]; Postemergence, 125 g ai/ha): 95
Plant response rating ([10]; Postemergence, 250 g ai/ha): 98
Plant response rating ([10]; Preemergence, 62 g ai/ha): 100
Plant response rating ([10]; Preemergence, 125 g ai/ha): 100
Plant response rating ([10]; Preemergence, 250 g ai/ha): 100
plant injury at 31 g/ha ([11]; post-emergence, Postemergence, 31 g ai/ha): 5%
plant injury at 62 g/ha ([11]; post-emergence, Postemergence): 5%
plant injury at 125 g/ha ([11]; post-emergence, Postemergence): 10%
plant injury at 250 g/ha ([11]; post-emergence, Postemergence): 10%
plant injury at 62 g/ha ([11]; pre-emergence, Preemergence): 25%
plant injury at 125 g/ha ([11]; pre-emergence, Preemergence): 45%
plant injury at 250 g/ha ([11]; pre-emergence, Preemergence): 50%
